This note sets out measurements from patent publication US20240301003A1 (NoNO Inc., priority 2021, published 2024).

Where a SMILES comes first, the peptide text is derived from it. Where no end group is shown, it is not given here. [ ]: non-standard residue; d: D form.

Series [1] has as its target PSD95PDZ2 (Homo sapiens, UniProt P78352). The series can be described thus: Competitive ELISA with biotinylated-NA-1. As to conditions: PSD-95 domain 2, FIG. 12. In general terms: ELISA stands for enzyme-linked immunosorbent assay.
Series [2] in a line: Pharmacokinetic analysis in rats (subcutaneous, pulmonary instillation, intravenous, intramuscular), HPLC.
Protocol: Rats were anaesthetized in the supine position (Isoflurane 1.5--%) and allowed to breath spontaneously in 0.5 L/min 02. The left femoral artery was cannulated for blood sampling.
Test agents were prepared at the stablish concentration in a total volume of vehicle. Pulmonary instillation was performed by intubation with a 14G catheter connected to a 1 cc syringe and the test agent will be delivered through the catheter. Subcutaneous (SQ or SC) injection was injected into the area of the left flank, no more than 2 ml of total volume per site.
Each dose was evaluated in 3 rats for each administration strategy. […] For the first experiment, evaluating two different administration routes (SQ and PI), blood samples were collected at 8 different timepoints: Pre and at 7 additional times (1, 2.5, 5, 10, 15, 30, 60 min) post dose (250 ul/sample).
HPLC quantification: Plasma was separated from blood and stored at −−−80° C. until used. […] Standard curves for HPLC were generated from plasma samples spiked with known quantities of test agent.
Series [3] has as its target T1, plasmin (Homo sapiens, UniProt P00747). Nature of the series: in vitro. The note with it: isolated enzyme plasmin.
The target in series [4] is T1, plasmin. Nature of the series: Plasmin sensitivity: peptides in PBS challenged with 10 ug/ml plasmin, HPLC. As to conditions: 10 ug/mL plasmin, 45 minutes (FIG. 29).
Series [5] relates to histamine release. The series can be described thus: Histamine release in rats, plasma histamine ELISA. The note with it: co-administration of lodoxamide (0.6 mg/kg).
Protocol: Histamine levels were quantified by using commercially available histamine ELISA assay kit (Histamine ELISA-H1531-K01, Eagle Bioscience). The plates were coated with the plasma samples (50 ul/well) incubated for 60 minutes at room temperature on an orbital shaker with medium frequency. Then 100 ul of enzyme conjugate was added to the wells and incubated for 20 minutes at room temperature. […] The reaction was stopped with 100 ul H2SO4. Absorbance was determined on an ELISA plate reader at 450 nm.
Blood samples were taken at pre-injection and at 0, 1, 2.5, 5, 10, 15, 30- and 60-minutes post dose and used for histamine levels quantification using commercially available kit.
A short description of series [6]: MTD studies and renal toxicity in rats (creatinine, BUN). The note with it: rats, addition of sodium benzoate (NA-3+SB).
Series [7] relates to plasmin. Nature of the series: 10 ug/mL plasmin. The note with it: up to 45 minutes.
For series [8], the system named is plasmin. Nature of the series: peptides in PBS challenged with 10 ug/ml plasmin. As to conditions: 37 C, up to 30 minutes.

T1 sequence (P00747 581-810 limits assumed, species assumed): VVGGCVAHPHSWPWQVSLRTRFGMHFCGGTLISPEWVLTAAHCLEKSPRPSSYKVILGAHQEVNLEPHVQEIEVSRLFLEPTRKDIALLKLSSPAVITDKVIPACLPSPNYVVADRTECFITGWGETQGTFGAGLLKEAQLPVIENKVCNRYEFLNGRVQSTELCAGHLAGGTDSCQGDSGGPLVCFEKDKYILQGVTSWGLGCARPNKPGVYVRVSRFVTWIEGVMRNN
T1 sequence (P00747 97-580 partner limits assumed, species assumed): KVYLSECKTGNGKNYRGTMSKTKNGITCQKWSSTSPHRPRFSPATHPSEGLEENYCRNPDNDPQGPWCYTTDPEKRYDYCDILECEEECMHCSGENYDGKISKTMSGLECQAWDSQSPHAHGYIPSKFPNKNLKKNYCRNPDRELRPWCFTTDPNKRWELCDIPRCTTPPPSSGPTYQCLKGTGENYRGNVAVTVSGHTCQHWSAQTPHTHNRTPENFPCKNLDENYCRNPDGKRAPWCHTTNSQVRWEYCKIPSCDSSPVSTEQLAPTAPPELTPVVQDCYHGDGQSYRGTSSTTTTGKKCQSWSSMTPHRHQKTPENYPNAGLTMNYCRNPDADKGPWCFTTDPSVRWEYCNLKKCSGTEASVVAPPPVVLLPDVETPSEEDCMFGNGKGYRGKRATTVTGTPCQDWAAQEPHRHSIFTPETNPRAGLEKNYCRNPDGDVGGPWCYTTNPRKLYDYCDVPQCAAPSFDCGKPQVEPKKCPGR
Chain of PSD95PDZ2 (P78352 160-246 limits assumed): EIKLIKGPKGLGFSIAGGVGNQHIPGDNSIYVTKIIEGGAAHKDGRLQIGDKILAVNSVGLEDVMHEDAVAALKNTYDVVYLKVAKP

On to `CC[C@@H](C)[C@@H](NC(=O)[C@@H](CO)NC(=O)[C@@H](CO)NC(=O)[C@@H](CC(C)C)NC(=O)[C@@H](CCCCN)NC(=O)[C@@H](CCCNC(=N)N)NC(=O)[C@@H](CCCNC(=N)N)NC(=O)[C@@H](CCCNC(=N)N)NC(=O)[C@@H](CCC(N)=O)NC(=O)[C@@H](CCCNC(=N)N)NC(=O)[C@@H](CCCNC(=N)N)NC(=O)[C@@H](CCCCN)NC(=O)[C@@H](CCCCN)NC(=O)[C@@H](CCCNC(=N)N)NC(=O)CNC(=O)[C@H](N)Cc1ccc(O)cc1)C(=O)N[C@H](CCC(=O)O)C(=O)N[C@H](CO)C(=O)N[C@H](CC(=O)O)C(=O)N[C@@H](C(=O)O)C(C)C` [D-NA-1, ygrkkrrqrrrklssiesdv] (HELM PEPTIDE1{[dY].G.[dR].[dK].[dK].[dR].[dR].[dQ].[dR].[dR].[dR].[dK].[dL].[dS].[dS].[dI].[dE].[dS].[dD].[dV]}$$$$V2.0), for which the “EC50 (compared between peptides)” value in series [1] was “about ten-fold lower”. For the same compound, the “plasma concentration and plasma exposure relative to intrapulmonary NA-1” value in series [2] (pulmonary instillation) was “higher plasma concentration and a greater plasma exposure”. Besides, in series [2] (subcutaneous 25 mg/kg), the “AUC compared with subcutaneous NA-1” value was “increased Cmax and AUC relative to subcutaneous NA-1 but not to the same extent”; the “Cmax compared with subcutaneous NA-1” value is “increased Cmax and AUC relative to subcutaneous NA-1 but not to the same extent”.
By amount remaining is commonly meant the share of the starting amount still present when the sample was taken. For the compound `CC[C@H](C)[C@H](NC(=O)[C@H](CO)NC(=O)[C@H](CO)NC(=O)[C@H](CC(C)C)NC(=O)[C@H](CCCCN)NC(=O)[C@@H](CCCNC(=N)N)NC(=O)[C@H](CCCNC(=N)N)NC(=O)[C@H](CCCNC(=N)N)NC(=O)[C@H](CCC(N)=O)NC(=O)[C@@H](CCCNC(=N)N)NC(=O)[C@H](CCCNC(=N)N)NC(=O)[C@H](CCCCN)NC(=O)[C@H](CCCCN)NC(=O)[C@@H](CCCNC(=N)N)NC(=O)CNC(=O)[C@@H](N)Cc1ccc(O)cc1)C(=O)N[C@@H](CCC(=O)O)C(=O)N[C@@H](CO)C(=O)N[C@@H](CC(=O)O)C(=O)N[C@H](C(=O)O)C(C)C` [NA-4.4.1] (HELM PEPTIDE1{Y.G.[dR].K.K.R.[dR].Q.R.R.[dR].K.L.S.S.I.E.S.D.V}$$$$V2.0; N-terminus and C-terminus assumed), the amount remaining at 0.5 h, 65 ug/ml in series [3] was around 100%.
On the same count and under the same terms, to `CC[C@H](C)[C@H](NC(=O)[C@H](CO)NC(=O)[C@H](CO)NC(=O)[C@H](CC(C)C)NC(=O)[C@H](CCCCN)NC(=O)[C@@H](CCCNC(=N)N)NC(=O)[C@H](CCCNC(=N)N)NC(=O)[C@H](CCCNC(=N)N)NC(=O)[C@@H](CCC(N)=O)NC(=O)[C@H](CCCNC(=N)N)NC(=O)[C@H](CCCNC(=N)N)NC(=O)[C@@H](CCCCN)NC(=O)[C@H](CCCCN)NC(=O)[C@H](CCCNC(=N)N)NC(=O)CNC(=O)[C@@H](N)Cc1ccc(O)cc1)C(=O)N[C@@H](CCC(=O)O)C(=O)N[C@@H](CO)C(=O)N[C@@H](CC(=O)O)C(=O)N[C@H](C(=O)O)C(C)C` [NA-411.4] (HELM PEPTIDE1{Y.G.R.K.[dK].R.R.[dQ].R.R.[dR].K.L.S.S.I.E.S.D.V}$$$$V2.0; N-terminus and C-terminus assumed) belongs around 100%.
With `CC[C@H](C)[C@H](NC(=O)[C@@H](CCCNC(=N)N)NC(=O)[C@H](CCCNC(=N)N)NC(=O)[C@@H](CCCNC(=N)N)NC(=O)[C@H](CCC(N)=O)NC(=O)[C@@H](CCCNC(=N)N)NC(=O)[C@@H](CCCNC(=N)N)NC(=O)[C@@H](CCCCN)NC(=O)[C@@H](CCCCN)NC(=O)[C@@H](N)CCCNC(=N)N)C(=O)N[C@@H](CCC(=O)O)C(=O)N[C@@H](CO)C(=O)N[C@@H](CC(=O)O)C(=O)N[C@H](C(=O)O)C(C)C` [NoNO 411, RkkrrQrRrIESDV] (HELM PEPTIDE1{R.[dK].[dK].[dR].[dR].Q.[dR].R.[dR].I.E.S.D.V}$$$$V2.0; N-terminus and C-terminus assumed), the plasmin resistance result in series [4] is recorded as “resistance to plasmin”.
Same read-out and setting: to `CC[C@H](C)[C@H](NC(=O)[C@H](CCCNC(=N)N)NC(=O)[C@@H](CCCNC(=N)N)NC(=O)[C@@H](CCCNC(=N)N)NC(=O)[C@H](CCC(N)=O)NC(=O)[C@@H](CCCNC(=N)N)NC(=O)[C@H](CCCNC(=N)N)NC(=O)[C@@H](CCCCN)NC(=O)[C@H](CCCCN)NC(=O)[C@@H](N)CCCNC(=N)N)C(=O)N[C@@H](CCC(=O)O)C(=O)N[C@@H](CO)C(=O)N[C@@H](CC(=O)O)C(=O)N[C@H](C(=O)O)C(C)C` [NoNO 414, RKkRrQrrRIESDV] (HELM PEPTIDE1{R.K.[dK].R.[dR].Q.[dR].[dR].R.I.E.S.D.V}$$$$V2.0) belongs “resistance to plasmin”.
On the same count and under the same terms, then `CC[C@H](C)[C@H](NC(=O)[C@H](CCCNC(=N)N)NC(=O)[C@H](CCCNC(=N)N)NC(=O)[C@@H](CCCNC(=N)N)NC(=O)[C@H](CCC(N)=O)NC(=O)[C@@H](CCCNC(=N)N)NC(=O)[C@H](CCCNC(=N)N)NC(=O)[C@H](CCCCN)NC(=O)[C@H](CCCCN)NC(=O)[C@H](N)CCCNC(=N)N)C(=O)N[C@@H](CCC(=O)O)C(=O)N[C@@H](CO)C(=O)N[C@@H](CC(=O)O)C(=O)N[C@H](C(=O)O)C(C)C` [NoNO 415, rKKRrQrRRIESDV] (HELM PEPTIDE1{[dR].K.K.R.[dR].Q.[dR].R.R.I.E.S.D.V}$$$$V2.0), with “resistance to plasmin”.
`N#Cc1cc(NC(=O)C(=O)O)c(Cl)c(NC(=O)C(=O)O)c1` [lodoxamide, 2-[2-chloro-5-cyano-3-(oxaloamino)anilino]-2-oxoacetic acid, reference compound]: the “effect on histamine induced by D-Tat-L-2B9C at 7.6 mg/kg IV” value in series [5] was “abrogated”.
For the compound `O=C([O-])c1ccccc1.[Na+]` [sodium benzoate, reference compound], the “effect on creatinine and BUN levels induced by 25 mg/kg NA-3” value in series [6] is “reduces the creatinine and BUN levels”.
As to RKkRrQrrRIESDV, the not cleaved result in series [7] is recorded as “no degradation observed in 45 minutes”.
On the same count and under the same terms, then “RkkrrQrRrIESDV (HELM PEPTIDE1{R.[dK].[dK].[dR].[dR].Q.[dR].R.[dR].I.E.S.D.V}$$$$V2.0; N-terminus and C-terminus assumed; SMILES CC[C@H](C)[C@H](NC(=O)[C@@H](CCCNC(=N)N)NC(=O)[C@H](CCCNC(=N)N)NC(=O)[C@@H](CCCNC(=N)N)NC(=O)[C@H](CCC(N)=O)NC(=O)[C@@H](CCCNC(=N)N)NC(=O)[C@@H](CCCNC(=N)N)NC(=O)[C@@H](CCCCN)NC(=O)[C@@H](CCCCN)NC(=O)[C@@H](N)CCCNC(=N)N)C(=O)N[C@@H](CCC(=O)O)C(=O)N[C@@H](CO)C(=O)N[C@@H](CC(=O)O)C(=O)N[C@H](C(=O)O)C(C)C)”, with “no degradation observed in 45 minutes”.
Regarding “YGRKkRRqRRrKLSSIESDV (YGRK[dK]RR[dQ]RR[dR]KLSSIESDV)”, the not cleaved entry in series [8] was “essentially 100% intact peptide after 30 minutes”.
For “YGrKKRrQRRrKLSSIESDV (YG[dR]KKR[dR]QRR[dR]KLSSIESDV)”, in series [8], the not cleaved entry is “essentially 100% intact peptide after 30 minutes”.
Regarding “YGrKKRrQrRRkLSSIESDV (YG[dR]KKR[dR]Q[dR]RR[dK]LSSIESDV)”, the not cleaved result in series [8] is recorded as “essentially 100% intact peptide after 30 minutes”.
For rKKRrQrRRIESDV, the not cleaved entry in series [7] is given as “no degradation observed in 45 minutes”.
